Legend:
[1] = target: Human TDO (hTDO)-transfected CHO-K1 cells (Homo sapiens (Human), UniProt P48775); assay: CHO-K1 cell based TDO assay; details: hTDO cellular assay
Method in brief: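 Stably hTDO-expressing CHO-K1 cells were exposed to compounds (typically 31 μM to 10 nM) in HBSS with 80 μM L-tryptophan for 2 h. TCA-treated supernatant was heated at 65° C for 15 min to convert N-formylkynurenine, then kynurenine was quantified by LC/MS/MS. IC50 came from percent inhibition versus DMSO control.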

[2] = target: Human indoleamine 2,3-dioxygenase1 (hIDO1) (Homo sapiens (Human), UniProt P14902); assay: In-vitro IDO1 enzyme assay (conversion of L-tryptophan to KYN); type: biochemical; details: read-out: IC50 (IDO1) Enz
Method in brief: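 His-tagged hIDO1 (10 nM, E. coli-expressed) incubated with 30 μM L-tryptophan, 20 mM ascorbate, 10 μM methylene blue and 100 μg/mL catalase in 50 mM potassium phosphate pH 6.5, 30 min at 37 °C. TCA stop, then 65 °C hydrolysis; KYN measured by HPLC-UV at 360 nm or LC/MS/MS. IC50 by nonlinear regression versus 1% DMSO control.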

IDO1 in HeLa cells = IDO1 in HeLa cells (Homo sapiens (Human), UniProt P14902); assay: HeLa cell based IDO1 assay (IFNγ-induced, KYN in supernatant)
Description: HeLa cells were obtained from ATCC and maintained in DMEM supplemented with sodium bicarbonate (2.1 g/L), HEPES (4.1 g/L), L-glutamine (2 mM), non-essential amino acid (84 mg/L) and fetal bovine serum (10% FBS) and maintained at 95% humidity and 5% CO2 in a 37° C. incubator. Unless otherwise stated, all materials were procured from Sigma. Upon incubation with gamma-interferon (IFNγ ), HeLa cells express IDO1, which catalyzes the formation of N-formyl kynurenine from tryptophan present in growth medium. The assay was performed as follows:
Cells were plated in medium (300 μL) at a density of 0.1 million per well of a 48 well plate and hIDO1 was induced by overnight treatment with IFNγ (50 ng/mL) (Peprotech, USA). The following day, cells were washed to remove IFNγ and were incubated with specific concentrations of test compounds (typically 10 μM to 1 nM, final volume 300 μL) in Hanks Balanced Salt Solution (HBSS) containing 80 μM L-tryptophan. Following incubation, supernatant (150 μL) was transferred to a 96 well plate into which 30%TCA (304) was added and the contents further incubated at 65° C. for 15 min to fully convert N-formylkynurenine to kynurenine. The reaction mixture was then centrifuged to remove sediments and the KYN in the supernatant was estimated by UV-visible absorption spectroscopy at 360 nm using a Waters HPLC system fitted with a C-18 column. (Xiangdong Liu et al. Blood 2010, Vol-117, 3520-30; Sono described above).
Percent inhibition at each concentration of test compounds was determined by estimating the decrease in KYN with reference to the reaction control with 1% DMSO vehicle. Data were analyzed using nonlinear regression to generate IC50 values using Graph Pad Prism® 5.

Human TDO (hTDO)-transfected CHO-K1 cells, sequence (P48775 whole entry): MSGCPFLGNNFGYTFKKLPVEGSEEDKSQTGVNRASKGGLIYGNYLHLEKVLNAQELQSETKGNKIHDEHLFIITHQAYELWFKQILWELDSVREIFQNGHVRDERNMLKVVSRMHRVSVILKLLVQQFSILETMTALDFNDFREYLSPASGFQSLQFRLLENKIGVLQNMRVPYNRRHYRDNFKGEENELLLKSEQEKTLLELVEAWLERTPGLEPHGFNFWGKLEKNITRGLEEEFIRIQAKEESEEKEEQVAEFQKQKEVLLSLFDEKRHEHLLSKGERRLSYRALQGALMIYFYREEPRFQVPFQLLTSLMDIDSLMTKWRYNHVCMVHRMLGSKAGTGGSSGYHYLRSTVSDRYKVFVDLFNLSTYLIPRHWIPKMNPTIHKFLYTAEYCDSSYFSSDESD
IDO1 in HeLa cells, sequence (P14902 whole entry): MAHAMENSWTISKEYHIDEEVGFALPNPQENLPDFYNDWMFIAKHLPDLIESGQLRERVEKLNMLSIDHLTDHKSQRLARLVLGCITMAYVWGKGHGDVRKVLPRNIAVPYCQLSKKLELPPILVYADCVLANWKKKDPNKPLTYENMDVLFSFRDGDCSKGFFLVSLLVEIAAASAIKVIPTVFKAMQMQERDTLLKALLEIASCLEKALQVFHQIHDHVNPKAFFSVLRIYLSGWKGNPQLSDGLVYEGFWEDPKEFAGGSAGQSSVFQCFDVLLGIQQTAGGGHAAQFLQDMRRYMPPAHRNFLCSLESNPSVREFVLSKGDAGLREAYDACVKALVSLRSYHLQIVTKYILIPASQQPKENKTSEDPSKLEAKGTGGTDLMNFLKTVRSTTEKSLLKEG
Human indoleamine 2,3-dioxygenase1 (hIDO1), sequence (P14902 whole entry): as above

Row | Structure (SMILES) | IC50 [1] [nM] | IC50 [2] [nM] | IC50 (IDO1 in HeLa cells) [nM]
1 | COc1cc2c(Nc3ccc(F)c(Cl)c3)c(N)oc2c(I)n1 [Compound 167, N^3-(3-Chloro-4-fluorophenyl)-7-iodo-5-methoxyfuro[2,3-c]pyridine-2,3-diamine] | > 2000 | < 200 | < 200
2 | CCCCOc1cc2c(Nc3ccc(F)c(Cl)c3)c(N)oc2c(-c2ccccc2)n1 [Compound 102, 5-Butoxy-N^3-(3-chloro-4-fluorophenyl)-7-phenylfuro[2,3-c]pyridine-2,3-diamine] | > 2000 | > 1000 | > 1000
3 | Nc1oc2c(-c3ccnc(C(=O)Nc4ccccn4)c3)nccc2c1Nc1ccc(F)c(Cl)c1 [Compound 273, 4-(2-Amino-3-((3-chloro-4-fluorophenyl)amino)furo[2,3-c]pyridin-7-yl)-N-(pyridin-2-yl)picolinamide] | > 2000 | < 200 | < 200
4 | CCc1nccc2c(Nc3ccc(F)c(Cl)c3)c(N)oc12 [Compound 73, N^3-(3-Chloro-4-fluoro-phenyl)-7-ethyl-furo[2,3-c]pyridine-2,3-diamine] | < 500 | < 200 | < 200
5 | Nc1sc2ccccc2c1Nc1ccc(Cl)c(C(F)(F)F)c1 [Compound 124, N^3-(4-Chloro-3-(trifluoromethyl)phenyl)benzo[b]thiophene-2,3-diamine] | > 2000 | < 200 | < 200
6 | Nc1oc2cnccc2c1Nc1ccc(Br)cc1 [Compound 16, N^3-(4-Bromophenyl)furo[2,3-c]pyridine-2,3-diamine] | 500 to 2000 | > 1000 | 200 to 1000
7 | COc1cc2c(Nc3ccc(F)c(Cl)c3)c(N)oc2c(-c2ccc(F)cc2)n1 [Compound 174, N^3-(3-chloro-4-fluorophenyl)-7-(4-fluorophenyl)-5-methoxyfuro[2,3-c]pyridine-2,3-diamine] | 500 to 2000 | < 200 | 200 to 1000
8 | Nc1sc2ccccc2c1Nc1ccc(Br)c(C(F)(F)F)c1 [Compound 126, N^3-(4-Bromo-3-(trifluoromethyl)phenyl)benzo[b]thiophene-2,3-diamine] | > 2000 | 200 to 1000 | 200 to 1000
9 | Cc1cc(-c2nc(F)cc3c(Nc4cccc(Cl)c4)c(N)oc23)ccn1 [Compound 254, N^3-(3-Ahlorophenyl)-5-fluoro-7-(2-methylpyridin-4-yl)furo[2,3-c]pyridine-2,3-diamine] | 500 to 2000 | < 200 | < 200
10 | Cc1cccc(Nc2c(N)sc3ccccc23)c1C [Compound 138, N^3-(2,3-Dimethylphenyl)-1-benzothiophene-2,3-diamine] | 500 to 2000 | > 1000 | 200 to 1000
11 | Nc1oc2c(-c3ccnc(C(=O)Nc4ccccc4)c3)nccc2c1Nc1ccc(F)c(Cl)c1 [Compound 249, 4-(2-Amino-3-((3-chloro-4-fluorophenyl)amino)furo[2,3-c]pyridin-7-yl)-N-phenylpicolinamide] | > 2000 | < 200 | 200 to 1000
12 | COc1cccc(-c2nccc3c(Nc4ccc(F)c(Cl)c4)c(N)oc23)c1 [Compound 90, N^3-(3-Chloro-4-fluorophenyl)-7-(3-methoxyphenyl)furo[2,3-c]pyridine-2,3-diamine] | 500 to 2000 | < 200 | < 200
13 | CC(C)c1nccc2c(Nc3ccc(F)c(Cl)c3)c(N)oc12 [Compound 83, N^3-(3-Chloro-4-fluorophenyl)-7-isopropylfuro[2,3-c]pyridine-2,3-diamine] | 500 to 2000 | < 200 | < 200
14 | Nc1oc2cnccc2c1Nc1ccc(F)cc1 [Compound 5, N^3-(4-Fluorophenyl)furo[2,3-c]pyridine-2,3-diamine] | 500 to 2000 | 200 to 1000 | < 200
15 | Nc1sc2c(-c3ccncc3)cccc2c1Nc1ccc(F)c(Cl)c1 [Compound 213, N^3-(3-Chloro-4-fluorophenyl)-7-(pyridin-4-yl)benzo[b]thiophene-2,3-diamine] | 500 to 2000 | < 200 | < 200
16 | Nc1sc2ccccc2c1Nc1ccc(F)c(F)c1 [Compound 211, N^3-(3,4-Difluorophenyl)benzo[b]thiophene-2,3-diamine] | < 500 | < 200 | < 200
17 | CCOC(=O)Nc1oc2c(-c3ccnc(C)c3)nccc2c1N(C(=O)OCC)c1ccc(F)c(Cl)c1 [Compound 269, Ethyl (3-chloro-4-fluorophenyl)(2-((ethoxycarbonyl)amino)-7-(2-methylpyridin-4-yl)furo[2,3-c]pyridin-3-yl)carbamate] | > 2000 | > 1000 | > 1000
18 | CCCc1nccc2c(Nc3ccc(F)c(Cl)c3)c(N)oc12 [Compound 77, N^3-(3-Chloro-4-fluoro-phenyl)-7-propyl-furo[2,3-c]pyridine-2,3-diamine] | > 2000 | < 200 | < 200
19 | Nc1oc2cnc(F)cc2c1Nc1ccc(F)c(Cl)c1 [Compound 181, N^3-(3-Chloro-4-fluorophenyl)-5-fluorofuro[2,3-c]pyridine-2,3-diamine] | < 500 | < 200 | < 200
20 | Nc1oc2c(-c3cc(F)ccc3Cl)nccc2c1Nc1ccc(F)c(Cl)c1 [Compound 276, N^3-(3-Chloro-4-fluorophenyl)-7-(2-chloro-5-fluorophenyl)furo[2,3-c]pyridine-2,3-diamine] | 500 to 2000 | < 200 | < 200
21 | Cc1cc(-c2nccc3c(Nc4ccccc4Cl)c(N)oc23)ccn1 [Compound 206, N^3-(2-chlorophenyl)-7-(2-methylpyridin-4-yl)furo[2,3-c]pyridine-2,3-diamine] | 500 to 2000 | < 200 | < 200
22 | C#Cc1cc(Nc2c(N)oc3c(-c4ccncc4)nccc23)ccc1F [Compound 111, N^3-(3-Ethynyl-4-fluorophenyl)-7-(pyridin-4-yl)furo[2,3-c]pyridine-2,3-diamine] | 500 to 2000 | < 200 | < 200
23 | Cc1cc(-c2nccc3c(Nc4ccc(F)c(C(F)(F)F)c4)c(N)oc23)ccn1 [Compound 205, N^3-(4-fluoro-3-(trifluoromethyl)phenyl)-7-(2-methylpyridin-4-yl)furo[2,3-c]pyridine-2,3-diamine] | 500 to 2000 | < 200 | < 200
24 | Cc1cc(-c2cccc3c(Nc4cccc(Cl)c4)c(N)sc23)ccn1 [Compound 248, N^3-(3-Chlorophenyl)-7-(2-methylpyridin-4-yl)benzo[b]thiophene-2,3-diamine] | 500 to 2000 | < 200 | < 200
25 | Cc1cc(-c2nc(F)cc3c(Nc4ccc(F)c(F)c4)c(N)oc23)ccn1 [Compound 246, N^3-(3,4-Difluorophenyl)-5-fluoro-7-(2-methylpyridin-4-yl)furo[2,3-c]pyridine-2,3-diamine] | 500 to 2000 | < 200 | < 200
26 | Cc1nccc2c(Nc3ccc(F)c(Cl)c3)c(N)oc12 [Compound 66, N^3-(3-Chloro-4-fluoro-phenyl)-7-methyl-furo[2,3-c]pyridine-2,3-diamine] | < 500 | < 200 | < 200
27 | Nc1oc2c(-c3ccncc3)nccc2c1Nc1ccc(F)c(C(F)(F)F)c1 [Compound 192, N^3-(4-Fluoro-3-(trifluoromethyl)phenyl)-7-(pyridin-4-yl)furo[2,3-c]pyridine-2,3-diamine] | 500 to 2000 | < 200 | < 200
28 | Nc1oc2c[n+]([O-])ccc2c1Nc1ccc(F)c(Cl)c1 [Compound 260, 2-Amino-3-((3-chloro-4-fluorophenyl)amino)furo[2,3-c]pyridine 6-oxide] | 500 to 2000 | 200 to 1000 | 200 to 1000
29 | Nc1oc2c(-c3ccc4c(c3)OCO4)nccc2c1Nc1ccc(F)c(Cl)c1 [Compound 261, 7-(Benzo[d][1,3]dioxol-5-yl)-N^3-(3-chloro-4-fluorophenyl)furo[2,3-c]pyridine-2,3-diamine] | 500 to 2000 | < 200 | < 200
